Toxic doses and inconclusive results are not listed. The calls were made as follows: active = survival T/C of 150% or more; inactive = T/C below 125% in these data.
System: CD2F1 mice, L1210 leukemia ip, survival T/C
Test: NCI In Vivo Anticancer Drug Screen. Data for tumor model L1210 Leukemia (intraperitoneal) in CD2F1 (CDF1) mice
Details: endpoint: mean survival time, higher = longer survival
Summary of the method: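 Implant tumor; dose compound or vehicle; measure endpoint in both groups; report treated divided by control.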

Measured: T/C

Clc1ccc(SC=C(Sc2ccc(Cl)cc2)Sc2ccc(Cl)cc2)cc1
inactive: dose: 100.0 mg/kg/injection, schedule: Q04DX002 (ip), vehicle: other 94 % of control | dose: 200.0 mg/kg/injection, schedule: Q04DX002 (ip), vehicle: other 94 % of control | dose: 400.0 mg/kg/injection, schedule: Q04DX002 (ip), vehicle: other 87 % of control

Cc1cccn(O)c1=NC(=O)c1ccccc1
inactive: dose: 100.0 mg/kg/injection, schedule: Q04DX003 (ip), vehicle: saline with Tween-80 95 % of control | dose: 200.0 mg/kg/injection, schedule: Q04DX003 (ip), vehicle: saline with Tween-80 105 % of control | dose: 400.0 mg/kg/injection, schedule: Q04DX003 (ip), vehicle: saline with Tween-80 86 % of control

NCCCCC1(CCCCN)OCCO1
inactive: dose: 25.0 mg/kg/injection, schedule: Q01DX009 (ip), vehicle: saline 95 % of control | dose: 25.0 mg/kg/injection, schedule: Q04DX002 (ip), vehicle: saline 102 % of control | dose: 50.0 mg/kg/injection, schedule: Q01DX009 (ip), vehicle: saline 102 % of control | dose: 50.0 mg/kg/injection, schedule: Q04DX002 (ip), vehicle: saline 95 % of control | dose: 100.0 mg/kg/injection, schedule: Q01DX001 (ip), vehicle: saline with Tween-80 94 % of control
